Among the test systems are DMS-114; M19-MEL; LXFL 529; HOP-18; DMS-273; KM-20L2; SNB-78; XF498; RXF 631.
What all share (assay): DTP human tumour cell line panel, 48 h

Molecules are shown by their SMILES.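 Tested at 5 concentrations; 48 h exposure; 96-well plates; endpoints linearly interpolated, else capped at highest concentration. GI50 marks 50% less growth.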 Activity calls are given as the source filed them. No stated cut-off is given here; in the data, active = GI50 up to about 1.1 µM and inactive = higher.

The GI50 is the concentration that inhibits growth by half. As for `CCN(CC)CCCNc1ccc2ncn3c4ccc(O)cc4c(=O)c1c23`, the GI50 in the test on DMS-114 is 3.37 µM (inactive); in the test on M19-MEL, 5.83 µM (inactive); in the test on LXFL 529, 2.65 µM (inactive); in the test on HOP-18, 18.6 µM (inactive); in the test with DMS-273 it was 0.553 µM (active); in the test with KM-20L2, 2.85 µM (inactive). Also, the GI50 in the test on SNB-78 is 8.65 µM (inactive); in the test on XF498, 0.239 µM (active).
As for `CC1(C)OC(=O)C(=C2CC(c3ccccc3)c3ccccc32)C(=O)O1` (stereo not drawn), the GI50 with DMS-114, with M19-MEL, with LXFL 529, with HOP-18, in the test on KM-20L2 and with RXF 631 was > 100 µM (inactive) throughout. Besides, the GI50 in the test on SNB-78 was > 100 µM (inactive).
For the compound `CCOC(=O)N[C@H]1CCc2cc(OC)c(OC)c(OC)c2-c2ccc(SC)c(=O)cc21`, the 50% growth inhibitory concentration (GI50) in the test with DMS-273, in the test with KM-20L2, with SNB-78 and with XF498 was < 0.01 µM (active) in each case.
Consider `CCOc1ccc(/N=C\c2cc(OC)c(OC)c(OC)c2)cc1`, for which the GI50 with DMS-114, with M19-MEL, in the test on LXFL 529, in the test on HOP-18, with DMS-273 and with KM-20L2 was > 100 µM (inactive) in each case. The GI50 in the test on SNB-78 and in the test with XF498 was > 100 µM (inactive) in each case.
As for `COc1ccc2nc3ccccc3c(NCCCN(C)CCCl)c2c1`, the 50% growth inhibitory concentration (GI50) is 0.311 µM (active) in the test on DMS-114; 0.353 µM (active) with M19-MEL; 0.0995 µM (active) with LXFL 529; 0.153 µM (active) in the test on DMS-273; 0.17 µM (active) with KM-20L2; 0.23 µM (active) with RXF 631. Besides, the values for the GI50 in the test with SNB-78 and in the test with XF498 were 0.156 µM (active) and 0.212 µM (active), respectively.
As for `[O-][S+]1Nc2cccc(C(F)(F)F)c2S1` (stereo not drawn), the GI50 was 20.1 µM (inactive) in the test on DMS-114; 66.1 µM (inactive) in the test with M19-MEL; 26.5 µM (inactive) in the test on LXFL 529; 72.4 µM (inactive) in the test with HOP-18; 25.1 µM (inactive) in the test with DMS-273; 29.9 µM (inactive) in the test on KM-20L2. The GI50 in the test on SNB-78 was 31.2 µM (inactive); in the test on XF498 it was 21.1 µM (inactive).
Take `CC(C)N1CC2CC(CN(C(=O)c3ccccc3)C2)C1.[O-][Cl+3]([O-])([O-])O`: the GI50 in the test with DMS-114, in the test on M19-MEL, with LXFL 529, in the test on HOP-18, in the test with DMS-273 and in the test with KM-20L2 was > 100 µM (inactive) in each case. Moreover, the GI50 with RXF 631 and with XF498 was > 100 µM (inactive) in each case.
`COc1cc(/C=C/C(=O)c2sc(Nc3ccccc3)nc2C)ccc1O`: the GI50 in the test on DMS-114 is 44.6 µM (inactive); with M19-MEL it was > 100 µM (inactive); in the test with HOP-18, > 100 µM (inactive); in the test with DMS-273, > 100 µM (inactive); in the test with KM-20L2, > 100 µM (inactive); in the test on SNB-78, > 100 µM (inactive).
Turning to `COc1nc(NC2OC(COC(C)=O)C(OC(C)=O)C(OC(C)=O)C2OC(C)=O)c(/N=C/C=N/c2c(NC3OC(COC(C)=O)C(OC(C)=O)C(OC(C)=O)C3OC(C)=O)nc(OC)n(C)c2=O)c(=O)n1C` (stereo not drawn), the GI50 in the test with DMS-114 was > 100 µM (inactive); in the test with M19-MEL it was > 100 µM (inactive); in the test on LXFL 529, > 100 µM (inactive); in the test on HOP-18, > 100 µM (inactive); in the test with KM-20L2, > 100 µM (inactive); in the test with XF498, 44.2 µM (inactive).
Take `COc1ccc(C2S/C(=C\c3cccc([N+](=O)[O-])c3)C(=O)N2NC(=O)Cc2ccccc2)cc1` (stereo not drawn): the GI50 in the test with DMS-114, with M19-MEL, with LXFL 529, with HOP-18 and in the test on DMS-273 was > 100 µM (inactive) throughout.
On to `COc1ccc(C(=O)C(C(=O)C(=O)Nc2nccs2)c2ccc(OC)cc2)cc1` (stereo not drawn), for which the GI50 with DMS-114, in the test with LXFL 529, in the test on HOP-18, in the test on DMS-273, in the test on KM-20L2 and in the test with SNB-78 was > 100 µM (inactive) each time. Also, in the test on XF498, the GI50 was > 100 µM (inactive).
`CC1=C(C(=O)Nc2cc(F)c(F)cc2F)C(c2ccc3c(c2)OCO3)C(C(=O)Nc2cc(F)c(F)cc2F)=C(C)N1`: the GI50 is 17.7 µM (inactive) in the test with DMS-114; 20.7 µM (inactive) in the test with M19-MEL; 23.2 µM (inactive) in the test on LXFL 529; 22.3 µM (inactive) with KM-20L2; 17.2 µM (inactive) in the test on SNB-78; 6.34 µM (inactive) in the test with XF498.
For the compound `O=C(c1ccc(Cl)cc1)c1ccc(OCCCCCCCCCCOc2ccc(C(=O)c3ccc(Cl)cc3)cc2)cc1`, the GI50 in the test on DMS-114, in the test on DMS-273, in the test with KM-20L2, in the test with RXF 631 and in the test on SNB-78 was > 100 µM (inactive) each time.
As to `C[C@@H]1CC(=O)C2CCCC1C2=O` (stereo partly drawn), the GI50 in the test on DMS-114, in the test on M19-MEL, in the test on LXFL 529, in the test on HOP-18, in the test on DMS-273 and with KM-20L2 was > 100 µM (inactive) each time. Also, the GI50 in the test with RXF 631 and with SNB-78 was > 100 µM (inactive) each time.
Take `COc1cc2cc(OC)c3cc4c(cc3c2c(OC)c1OC)OCO4`: the GI50 was 35.7 µM (inactive) with DMS-114; 20.8 µM (inactive) in the test on M19-MEL; 31.3 µM (inactive) in the test on LXFL 529; 67.6 µM (inactive) in the test with HOP-18; 15.1 µM (inactive) in the test with DMS-273; 11.6 µM (inactive) with KM-20L2. Moreover, the GI50 with RXF 631 was 32.5 µM (inactive); in the test on SNB-78, 50.2 µM (inactive).
As to `COc1cc(C(=O)C/C(CCC(=O)Nc2ccccc2[N+](=O)[O-])=N\NC(N)=O)ccc1O`, the GI50 with DMS-114 is > 100 µM (inactive); in the test on M19-MEL, > 100 µM (inactive); with HOP-18, 89.1 µM (inactive); with DMS-273 it was > 100 µM (inactive); in the test with KM-20L2, > 100 µM (inactive); in the test on RXF 631 it was > 100 µM (inactive). Further, the figures for the GI50 in the test with SNB-78 and in the test on XF498 were > 100 µM (inactive) and 6.49 µM (inactive), respectively.
Take `NC(CS)C(=O)NCCNc1ccc(NCCNC(=O)C(N)CS)c2c1C(=O)c1c(O)ccc(O)c1C2=O` (stereo not drawn): the 50% growth inhibitory concentration (GI50) is 0.00143 µM (active) with DMS-114; 0.0318 µM (active) in the test on M19-MEL; 0.106 µM (active) with LXFL 529; 0.439 µM (active) in the test on HOP-18; 0.00168 µM (active) in the test with DMS-273; 0.0618 µM (active) in the test on KM-20L2. In addition, the values for the concentration for 50% growth inhibition (GI50) in the test on SNB-78 and with XF498 were 0.214 µM (active) and 0.0138 µM (active), respectively.
As to `COC(=O)C1=C(C(=O)OC)C2C=CC1C1C(Cl)=C(Cl)C21` (stereo not drawn), the GI50 with DMS-114, in the test with M19-MEL, with LXFL 529, in the test on HOP-18, in the test on DMS-273 and in the test on KM-20L2 was > 100 µM (inactive) throughout. In addition, in the test with RXF 631, the GI50 was > 100 µM (inactive).
For `O=C(/C=C/c1ccc(Br)cc1)c1ccc(NCc2nc3ccccc3[nH]2)cc1`, the GI50 with DMS-114 is 2.99 µM (inactive); with M19-MEL, 6.56 µM (inactive); in the test on LXFL 529 it was 4.24 µM (inactive); in the test on HOP-18 it was > 46.2 µM (inactive); in the test on DMS-273, 5.7 µM (inactive); in the test with KM-20L2 it was 4.83 µM (inactive). For the same compound, the GI50 with SNB-78 is 2.98 µM (inactive); with XF498 it was 5.89 µM (inactive).
Regarding `O=C(CCc1ccccc1)NS(=O)(=O)c1ccccc1`, the GI50 in the test on DMS-114, with M19-MEL, with LXFL 529, with HOP-18, with KM-20L2 and in the test with RXF 631 was > 100 µM (inactive) throughout. Besides, the GI50 in the test with XF498 is > 100 µM (inactive).
Turning to `CC(=O)Nc1ccc(-c2nnc(SCC(=O)Nc3ccccc3[N+](=O)[O-])o2)cc1`, the GI50 in the test with DMS-114 was 27.9 µM (inactive); with M19-MEL, > 100 µM (inactive); with LXFL 529, 29.9 µM (inactive); with HOP-18 it was > 100 µM (inactive); in the test with DMS-273, > 100 µM (inactive); in the test with KM-20L2, > 100 µM (inactive). In addition, the GI50 in the test on SNB-78 was > 100 µM (inactive).
In the case of `C1CCOC2(CCC3(CC2)OCCCCO3)OC1`, the GI50 in the test with DMS-114, in the test on M19-MEL, in the test on LXFL 529, in the test on HOP-18, with DMS-273 and in the test with KM-20L2 was > 100 µM (inactive) each time. In addition, the GI50 in the test on SNB-78 was > 100 µM (inactive).
On to `CCCC(O)[C@@H](O)c1ccc2c(c1O)C(=O)c1c(OC)cccc1C2=O` (stereo partly drawn), for which the GI50 in the test on DMS-114 was 26.2 µM (inactive); in the test with M19-MEL, 24.2 µM (inactive); in the test with HOP-18, 50.8 µM (inactive); in the test on DMS-273 it was 35.5 µM (inactive); with KM-20L2 it was 50.9 µM (inactive); in the test on RXF 631, 28.2 µM (inactive). The results for the GI50 in the test with SNB-78 and in the test on XF498 were 36.6 µM (inactive) and 20.2 µM (inactive), respectively.
With `Cn1c2ccccc2c2[nH]cc3nc4ccccc4c-3c21`, the GI50 with DMS-114 is 22.9 µM (inactive); in the test on M19-MEL, 19.7 µM (inactive); in the test on LXFL 529 it was 25.2 µM (inactive); with DMS-273, 16.2 µM (inactive); in the test with KM-20L2, 16.7 µM (inactive); in the test on RXF 631 it was 29.5 µM (inactive). In addition, the values for the GI50 in the test with SNB-78 and with XF498 were 24.5 µM (inactive) and 17.4 µM (inactive), respectively.
Take `O=P1(NCCCl)OCCCN1CCCl` (stereo not drawn) [IFOSFAMIDE]: the GI50 with DMS-114 is 399 µM (inactive); in the test on M19-MEL, 395 µM (inactive); in the test on LXFL 529 it was 498 µM (inactive); in the test with HOP-18, 104 µM (inactive); in the test on DMS-273, 364 µM (inactive); with KM-20L2, 385 µM (inactive). Further, the values for the GI50 with SNB-78 and in the test with XF498 were 384 µM (inactive) and 381 µM (inactive), respectively.

Values taken from ChEMBL document CHEMBL1201862, “PubChem BioAssay data set” (2004).
